This passage reports inhibition results from PMC6934184, “Selective DNA-PKcs inhibition extends the therapeutic index of localized radiotherapy and chemotherapy” (The Journal of Clinical Investigation, 2019).

The assay concerns the target T1, RPS6KB1 (p70S6K) (Homo sapiens, UniProt P23443).
T1 construct: purchased Thermo Fisher Scientific (Life Technologies) SelectScreen
The experiment in a line: SelectScreen Z'LYTE. It counts as biochemical. A digest of the protocol: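 Percent values come from Thermo SelectScreen profiling of NU5455, combining activity and binding assays. CSF1R was run in Z'LYTE format at Km app ATP, and CAMK1 in Adapta format with ATP listed at 10.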

T1 sequence (P23443 whole entry): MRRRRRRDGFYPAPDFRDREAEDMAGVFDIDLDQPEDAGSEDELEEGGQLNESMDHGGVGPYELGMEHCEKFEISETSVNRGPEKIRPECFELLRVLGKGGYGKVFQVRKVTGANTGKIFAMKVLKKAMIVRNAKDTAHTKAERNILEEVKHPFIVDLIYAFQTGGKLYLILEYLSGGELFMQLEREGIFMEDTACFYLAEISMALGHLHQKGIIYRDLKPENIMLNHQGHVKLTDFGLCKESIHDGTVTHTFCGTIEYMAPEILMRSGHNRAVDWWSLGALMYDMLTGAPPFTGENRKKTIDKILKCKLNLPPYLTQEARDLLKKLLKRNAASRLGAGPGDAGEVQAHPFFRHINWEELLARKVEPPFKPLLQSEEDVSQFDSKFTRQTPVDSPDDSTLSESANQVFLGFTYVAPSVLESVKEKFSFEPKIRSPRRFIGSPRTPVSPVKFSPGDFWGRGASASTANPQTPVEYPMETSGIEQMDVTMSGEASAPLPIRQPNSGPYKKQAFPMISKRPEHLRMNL

As to `CN(C(=O)CN1CCOCC1)c1ccc2sc3c(-c4cccc5c(=O)cc(N6CC7CCC(C6)O7)oc45)cccc3c2c1` [NU5455], the inhibition – broadly, the drop in the measured response relative to a control, in per cent – at 1 µM was -7.8%.
